Like-named read-outs stand apart in the source and are kept apart here. One block for each compound: values may come before it.
Key:
[1] = test system: patients newly diagnosed with Ph+ CML-CP; design: method as in PMID 28939746; conditions: by 12 months, cited from earlier work
[2] = cited from earlier work
patients with CML-CP = test system: patients with CML-CP; design: method as in PMID 24705186; conditions: 400 mg twice daily; 77 patients; at 12 months; cited from earlier work
[3] = design: method as in ref 24 = [24]; 24. Kim J. Kang M. Lee Y. Yoo S. Han J. Cho D.J. Lee G.Y. Kim N.Y. Jiang Q. Lee J. Pharmacokinetic characteristics of radotinib assessed in Asian patients with chronic myeloid leukemia Proceedings of; conditions: patients with CML-CP, cited from earlier work
[4] = design: method as in ref 23 = [23]; 23. Lee Y. Kang M. Kim J. Han J. Kim N.Y. Shin J.S. Park M.S. Kim C.O. Jin B.H. Choi M.K. Clinical pharmacokinetic characteristics and the effect of food on radotinib in healthy volunteers Proceedings; conditions: healthy volunteers; cited from earlier work
[5] = Population pharmacokinetic model (nonlinear mixed-effects modeling) of radotinib plasma concentrations in healthy volunteers and patients with CML-CP; format: in vivo, human; conditions: for half-life: human, plasma, oral, read-out: terminal half-life (t1/2), population estimate (converted)
Procedure: Two clinical PK studies of radotinib were performed in healthy volunteers and patients with CML-CP. The two studies were approved by the institutional review board (IRB) of Severance Hospital and Peking University People’s Hospital (IRB numbers 4-2024-0489 and 2018PHA053, respectively) and were conducted in accordance with the Declaration of Helsinki and the International Council for Harmonization Good Clinical Practice (ICH-GCP) guidelines. All participants provided written informed consent prior to any study-related procedures. The studies were registered at ClinicalTrials.gov (identifiers: NCT06461078 and NCT03722420). The present population PK study was performed using pooled data from two clinical studies.
The first study (NCT06461078) included healthy male adult volunteers aged 19 to 55 years, weighing 55 kg or heavier, with a body mass index (BMI) between 18.5 kg/m^2 and 27.0 kg/m^2. Individuals with a history of clinically significant psychiatric or comorbid conditions such as severe hepatic impairment, severe renal impartment, long QT syndrome; a history of gastrointestinal disorders or surgeries that may have affected the absorption of radotinib; or suspected symptoms of acute illness at the time of screening were excluded. Also excluded were individuals with concomitant medications or foods that may have interfered with the study outcomes as well as those with excessive consumption of caffeine, alcohol or tobacco. Individuals were also ineligible if they had participated in other clinical trials within 180 days, donated whole blood within 60 days or blood components within 30 days or received a blood transfusion within 30 days prior to the administration of radotinib. Study participants received a single oral dose of 400 mg radotinib under fasting conditions. Serial blood samples were collected from forearm veins of participants pre-dose and at 0.5, 1, 2, 3, 4, 5, 6, 8, 10, 12, 18, 24, 32 and 48 h post-dose.
The second study (NCT03722420) included patients aged 18 years or older with a confirmed diagnosis of Ph+ CML-CP within last 6 months, typical BCR-ABL1 transcript type and normal organ function. Patients with a T315I mutation in the BCR-ABL1 gene; a history of radiotherapy, interferon or other targeted anti-leukemic therapies; or clinically significant comorbidities were excluded. Patients were also ineligible if they had participated in other investigational studies within the past 3 months or were taking therapeutic coumarin derivatives; a moderate or strong CYP3A4 inhibitor or inducer; or medications that may have prolonged the QT interval. Study participants were orally administered 300 mg radotinib twice daily under fasting conditions. Serial blood samples were obtained from forearm veins pre-dose and at 1, 2, 3, 4, 6, 8 and 12 h post-dose on Days 1 and 14.
All samples were centrifuged to separate plasma and stored at −70 °C until the measurement of plasma concentrations (Cp) of radotinib. The Cp of radotinib in HVs was measured using high-performance liquid chromatography coupled with tandem mass spectrometric detection (HPLC-MS/MS; Prominence HPLC/UFLC/UFLCXR, Shimadzu, Kyoto, Japan; QTRAP 6500+, SCIEX, Marlborough, MA, USA). An internal standard was radotinib-d6 dissolved in acetonitrile to produce working solutions. The linearity of the bioanalytical method was assessed using a calibration curve computed by a weighted (1/x^2) linear regression from seven standard concentrations (5, 10, 30, 100, 300, 1000 and 2000 ng/mL). The method was validated using concentrations of 5, 15, 160 and 1600 ng/mL for the lower limit of quantitation (LLOQ) and low- (LQC), medium- (MQC) and high-quality controls (HQC), respectively.
In patients with CML-CP, the Cp of radotinib was quantified using another HPLC–MS/MS system (LC-20ADXR pump, CTO-20AC column oven, CBM-20A Lite controller and DGU-20A5R degasser, Shimadzu, Kyoto, Japan; API 4000, SCIEX, MA, USA). Glipizide in acetonitrile was used as an internal standard. […]

[6] = Preliminary pharmacokinetic assessment in patients with CML-CP; format: in vivo; conditions: human, plasma, oral, 300 mg twice daily, obtained by doubling the preliminary value of AUC0–12h, read-out: AUC0–24h, previously estimated

SMILES: Cc1ccc(NC(=O)c2ccc(CN3CCN(C)CC3)cc2)cc1Nc1nccc(-c2cccnc2)n1 [imatinib]
patients achieving major molecular response (MMR) ([1]; once-daily 400 mg, 20 of 66 patients): 30%

SMILES: Cc1cn(-c2cc(NC(=O)c3ccc(C)c(Nc4nccc(-c5cccnc5)n4)c3)cc(C(F)(F)F)c2)cn1 [nilotinib]
target Ctrough in terms of favorable molecular responses ([2]; 400 mg once daily): 500 ng/mL
t1/2 [2]: 16 h

CL/F, bootstrap estimate median (95% CI) ([5]; bootstrap of 1000 replicates): 23.2 (20.0–26.5) L/h
MTT, bootstrap estimate median (95% CI) ([5]; bootstrap of 1000 replicates): 1.86 (1.43–2.27) h
N, bootstrap estimate median (95% CI) ([5]; bootstrap of 1000 replicates): 6.34 (4.46–10.6)
Q/F, bootstrap estimate median (95% CI) ([5]; bootstrap of 1000 replicates): 126 (88.9–185) L/h
Vc/F age effect, bootstrap estimate median (95% CI) ([5]; bootstrap of 1000 replicates): −0.0127 (−0.0258–−0.003)
Vc/F, bootstrap estimate median (95% CI) ([5]; bootstrap of 1000 replicates): 395 (281–526) L
Vp/F, bootstrap estimate median (95% CI) ([5]; bootstrap of 1000 replicates): 529 (398–733) L
ka, bootstrap estimate median (95% CI) ([5]; bootstrap of 1000 replicates): 1.56 (1.07–3.14) h^−1
σproportional, bootstrap estimate ([5]; bootstrap of 1000 replicates): 20.0%
ωCL/F, bootstrap estimate median (95% CI) ([5]; bootstrap of 1000 replicates): 0.379 (0.301–0.459)
ωIOV, bootstrap estimate median (95% CI) ([5]; bootstrap of 1000 replicates): 0.669 (0.494–0.829)
CL/F slower in CML-CP patients compared with HVs ([5]; final population PK model): 39.2%
MTT (mean transit time), population estimate ([5]; final population PK model): 1.88 h
N (number of transit compartments), population estimate ([5]; final population PK model): 6.58
estimated slope of negative linear effect of age on Vc/F ([5]; final population PK model): −0.0129 per year
ka (first-order absorption rate constant), population estimate ([5]; final population PK model): 1.59 h⁻¹
negative linear relationship of age with Vc/F ([5]; final population PK model): −0.0129 L per year
total V/F (summation of Vc/F and Vp/F) ([5]; final population PK model): 902 L
σproportional (proportional residual error), population estimate ([5]; final population PK model): 20.0%
ωCL/F (interindividual variability of apparent clearance), population estimate ([5]; final population PK model): 0.389
CL/F, population estimate in healthy volunteers ([5]; final population PK model, HVs): 37.9 L/h
Vc/F age effect (slope), population estimate ([5]; final population PK model, linear, age − 31): −0.0129
ωIOV (interoccasion variability), population estimate ([5]; final population PK model, on Vc/F and Vp/F): 0.698
CL/F (apparent clearance), population estimate ([5]; final population PK model, typical patient with CML-CP): 23.0 L/h
terminal half-life (t1/2), population estimate ([5]; healthy volunteers): 18.2 h
half-life ([5]; 300 mg, patients with CML-CP): 28.8 h
half-life ([5]; male, 400 mg, healthy volunteers): 17.5 h
AUC(0-t) [6]: 24000 ng·h/mL
SMILES: Cc1cn(-c2cc(NC(=O)c3ccc(C)c(Nc4nccc(-c5cnccn5)n4)c3)cc(C(F)(F)F)c2)cn1 [radotinib]
patients achieving major cytogenetic response (MCyR) (patients with CML-CP): 65%
patients attaining complete cytogenetic response (CCyR) (patients with CML-CP): 47%
Cmax, preliminarily assessed value ([3]; 300 mg twice daily): 1595 (1143–2393) ng/mL
tmax, preliminarily assessed value ([3]; 300 mg twice daily): 2.5 (2.0–3.8) h
t1/2, preliminary value [3]: 25.4 h
V/F, preliminary value based on NCA [4]: 1315 L
t1/2, preliminary value [4]: 17.5 h
patients achieving major molecular response (MMR) ([1]; 300 mg twice daily, 37 of 69 patients): 54%

Reference: PMC12655659, “Population Pharmacokinetics of Radotinib in Healthy Volunteers and Patients with Chronic Myeloid Leukemia” (Pharmaceuticals, 2025)
